Experimental findings from US10039715B2, “Liposomal formulation of nonglycosidic ceramides and uses thereof” (LUDWIG INSTITUTE FOR CANCER RESEARCH LTD., priority 2010, dated 2018) are described below.

The structures appear in SMILES notation.

The subject of test [1] is murine invariant natural killer cells (iNKT). Description: Activation of iNKT cells in splenocyte culture, IFNγ ELISA. It counts as cell-based, mice. The settings on record: splenocytes cultured 72 hours with material (titrating amounts 10 μg/ml, 1 μg/ml, 100 ng/ml; concentration of the tabulated values not stated), supernatant ELISA. As for the experimental part: This Example illustrates ability of the threitolceramide-containing liposomes to activate murine invariant natural killer cells (iNKT) and human cells, as measured by IFNγ release.
Splenocytes were prepared from either wild type (WT) or CD1d^−/− (NKT cell deficient) mice and cultured in the presence of titrating amounts (10 μg/ml, 1 μg/ml, 100 ng/ml) of non-glycosidic ceramide containing liposomes (EPC:DDAB:TC(10); EPC:EPG:TC(2); EPC:EPG:TC(5); EPC:EPG:TC(10) and EPC:CHOL:TC(10)), control liposome (EPC:EPG), soluble threitolceramide or soluble α-GalCer for 72 hours. Soluble threitolceramide and soluble α-GalCer were prepared by dissolution in a chloroform/methanol/water solution (10:10:3) at 10 mg/mL. The resulting solution was diluted to a final volume of about 200 μg/mL using vehicle solution comprised of NaCl (about 150 mM) and polyoxyethylene (20) sorbitan monolaurate (i.e., Tween 20, 0.5%). Supernatants were removed from cultures and the amount of IFNγ produced by the cells was quantified by ELISA. Briefly, ELISA plates were coated with 1D1K antibody (Mabtech) and left overnight at 4° C. The plates were washed with 0.05% Tween 20 in PBS (v/v). To eliminate any non-specific antigen binding, the plates were coated (i.e. blocked) with 200 μL of 10% FCS in PBS (v/v) and incubated for 2 h at 37° C. […]

The subject of test [2] is iNKT cell. Description: Activation of NKT cells in vivo, serum IL-4 and IFN-γ by ELISA. Further details: species or system mice. To be noted: 1 μg intravenous injection; for IL-4 (serum): 2 hours; for INFγ (serum): 18 hours. As for the experimental part:
(§1) This example illustrates the in vivo effect of threitolceramide-containing liposomes on dendritic cell (DC) maturation, as measured by CD86 and CD40 expression, and iNKT cell activation, as measured by IL-4 and IFNγ release.
(§2) WT (n=3) and CD1d^−/− (n=1) mice were administered 1 μg of liposomes (EPC:DDAB:TC(10); EPC:EPG:TC(2); EPC:EPG:TC(5); EPC:EPG:TC(10) and EPC:CHOL:TC(10)) or control liposome (EPC:EPG), soluble threitolceramide or soluble α-GalCer by intravenous injection.
Serums were obtained by tail venipuncture 2 and 18 hours post-injection to detect IL-4 and IFN-γ levels by ELISA.
A general note: An ELISA detects its analyte on a solid surface through an enzyme-linked reagent.

Test [3] concerns dendritic cell (DC). Description: DC maturation in vivo, CD86 and CD40 expression on spleen DC by flow cytometry. To be noted: median fluorescent intensity, spleen DC 18 hours after 1 μg intravenous injection. Further details: species or system mice. As for the experimental part: as §1, §2
18 hours post-injection, the spleens of the mice were harvested and the phenotype of DC maturation was examined by flow cytometry as determined by the median fluorescent intensity (MFI) of CD86 and CD40 expression.
A general note: Flow cytometry measures light scatter and fluorescence of single cells or particles in a stream.

For the compound `CCCCCCCCCCCCCCCCCCCCCCCCCC(=O)N[C@@H](CO[C@H]1O[C@H](CO)[C@H](O)[C@H](O)[C@H]1O)[C@H](O)[C@H](O)CCCCCCCCCCCCCC` [Soluble α-GalCer, α-Galactosylceramide], the “IFNγ” value in test [1] turned out to be 9.21 ng/mL. Besides, in test [2], the “IL-4 (serum)” value worked out at 0.83 ng/mL and the “INFγ (serum)” value was 8.47 ng/mL. Also, in test [3], the “CD40 (DC maturation) Median” value is on record as 39.1 and the “CD86 (DC maturation) Median” value is given as 91.6.

With `CCCCCCCCCCCCCCCCCCCCCCCCCC(=O)N[C@@H](COC[C@H](O)[C@@H](O)CO)[C@H](O)[C@H](O)CCCCCCCCCCCCCC` [Soluble TC, threitolceramide], in test [1], the “IFNγ” value was found to be 3.77 ng/mL. Further, in test [2], the “IL-4 (serum)” value turned out to be 0.12 ng/mL and the “INFγ (serum)” value was 0.99 ng/mL. In test [3], the “CD40 (DC maturation) Median” value came out at 28.9 and the “CD86 (DC maturation) Median” value stood at 60.1.
